From ChEMBL document CHEMBL1137237, “Identification of isothiazole-4-carboxamidines derivatives as a novel class of allosteric MEK1 inhibitors” (Bioorg Med Chem Lett, 2006)
pEC50, pIC50: −log10 of the molar value.

What was measured:
[1] = AUC following oral dose; format: ADME, organism-based; details: rat, plasma
[2] = AUC following intravenous dose; format: ADME, organism-based; details: rat, plasma
[3] = molecular target: T1, Dual specificity mitogen-activated protein kinase kinase 1 (Homo sapiens, UniProt Q02750); assay: Inhibitory activity against MEK-1; format: functional
[4] = molecular target: T1, Dual specificity mitogen-activated protein kinase kinase 1; assay: Inhibition of MEK-1
[5] = molecular target: T2, Receptor-type tyrosine-protein kinase FLT3 (Homo sapiens, UniProt P36888); assay: Inhibition of Flt-3
T2 sequence (P36888 whole entry): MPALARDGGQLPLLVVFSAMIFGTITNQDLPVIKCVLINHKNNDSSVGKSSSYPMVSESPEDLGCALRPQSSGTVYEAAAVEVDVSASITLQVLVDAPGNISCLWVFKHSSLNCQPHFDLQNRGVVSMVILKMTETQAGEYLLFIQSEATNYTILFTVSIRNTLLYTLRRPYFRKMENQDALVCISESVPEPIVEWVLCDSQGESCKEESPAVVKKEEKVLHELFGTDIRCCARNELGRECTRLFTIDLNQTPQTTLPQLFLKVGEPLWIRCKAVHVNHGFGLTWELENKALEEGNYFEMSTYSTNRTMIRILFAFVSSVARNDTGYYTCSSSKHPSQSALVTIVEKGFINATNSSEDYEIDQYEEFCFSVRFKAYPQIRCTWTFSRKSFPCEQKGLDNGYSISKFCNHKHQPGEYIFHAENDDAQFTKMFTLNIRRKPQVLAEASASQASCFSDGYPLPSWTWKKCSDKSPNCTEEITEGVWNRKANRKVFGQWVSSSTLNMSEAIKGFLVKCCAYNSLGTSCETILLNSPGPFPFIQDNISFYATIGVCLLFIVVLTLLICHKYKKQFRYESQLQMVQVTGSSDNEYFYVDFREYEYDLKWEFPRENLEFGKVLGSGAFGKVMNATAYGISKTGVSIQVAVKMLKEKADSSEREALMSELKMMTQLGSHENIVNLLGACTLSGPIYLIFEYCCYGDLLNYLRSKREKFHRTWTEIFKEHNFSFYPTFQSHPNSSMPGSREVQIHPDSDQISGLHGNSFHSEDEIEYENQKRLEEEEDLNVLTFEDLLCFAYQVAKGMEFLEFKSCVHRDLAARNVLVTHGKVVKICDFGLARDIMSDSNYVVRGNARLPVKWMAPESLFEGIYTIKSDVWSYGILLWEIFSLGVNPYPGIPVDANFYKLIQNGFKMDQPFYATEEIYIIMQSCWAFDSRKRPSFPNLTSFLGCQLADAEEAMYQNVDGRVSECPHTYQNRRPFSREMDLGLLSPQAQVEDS

[6] = molecular target: T3, Tyrosine-protein kinase receptor UFO (Homo sapiens, UniProt P30530); assay: Inhibition of Axl
T3 sequence (P30530 whole entry): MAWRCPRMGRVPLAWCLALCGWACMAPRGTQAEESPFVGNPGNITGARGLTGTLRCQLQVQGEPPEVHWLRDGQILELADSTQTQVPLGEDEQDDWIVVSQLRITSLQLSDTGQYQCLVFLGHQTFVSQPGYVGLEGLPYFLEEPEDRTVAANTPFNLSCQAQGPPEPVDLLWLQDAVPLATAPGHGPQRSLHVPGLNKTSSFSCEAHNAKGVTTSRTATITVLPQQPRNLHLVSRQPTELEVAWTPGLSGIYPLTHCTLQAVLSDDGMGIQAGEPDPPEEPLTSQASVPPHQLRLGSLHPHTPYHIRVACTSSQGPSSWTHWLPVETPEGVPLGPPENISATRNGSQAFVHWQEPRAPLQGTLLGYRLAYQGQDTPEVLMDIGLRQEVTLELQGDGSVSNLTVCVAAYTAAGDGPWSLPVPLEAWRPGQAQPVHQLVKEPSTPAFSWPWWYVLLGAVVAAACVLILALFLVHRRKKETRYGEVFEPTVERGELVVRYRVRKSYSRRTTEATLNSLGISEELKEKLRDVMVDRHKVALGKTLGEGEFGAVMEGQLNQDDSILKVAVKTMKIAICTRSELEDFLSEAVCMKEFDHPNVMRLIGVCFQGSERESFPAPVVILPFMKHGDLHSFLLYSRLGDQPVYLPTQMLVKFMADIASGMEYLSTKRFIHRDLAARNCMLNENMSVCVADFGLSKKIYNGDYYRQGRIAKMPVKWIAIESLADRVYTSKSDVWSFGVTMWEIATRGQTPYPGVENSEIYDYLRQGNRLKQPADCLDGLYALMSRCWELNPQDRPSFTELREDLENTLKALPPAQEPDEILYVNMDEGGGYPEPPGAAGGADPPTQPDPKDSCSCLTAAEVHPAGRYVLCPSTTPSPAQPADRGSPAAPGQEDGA

[7] = molecular target: Serine/threonine-protein kinase Chk2 (Homo sapiens, UniProt O96017); assay: Inhibition of CHK2
[8] = molecular target: T1, Dual specificity mitogen-activated protein kinase kinase 1; assay: Inhibition of MEK-1 activity
[9] = molecular target: Ribosomal protein S6 kinase (P70S6K) (Homo sapiens, UniProt P23443+Q9UBS0); assay: Inhibition of p70 S6 kinase; format: protein-complex assay
Aurora kinase A = molecular target: T4, Aurora kinase A (Homo sapiens, UniProt O14965); assay: Inhibition of Aurora
T4 sequence (O14965 whole entry): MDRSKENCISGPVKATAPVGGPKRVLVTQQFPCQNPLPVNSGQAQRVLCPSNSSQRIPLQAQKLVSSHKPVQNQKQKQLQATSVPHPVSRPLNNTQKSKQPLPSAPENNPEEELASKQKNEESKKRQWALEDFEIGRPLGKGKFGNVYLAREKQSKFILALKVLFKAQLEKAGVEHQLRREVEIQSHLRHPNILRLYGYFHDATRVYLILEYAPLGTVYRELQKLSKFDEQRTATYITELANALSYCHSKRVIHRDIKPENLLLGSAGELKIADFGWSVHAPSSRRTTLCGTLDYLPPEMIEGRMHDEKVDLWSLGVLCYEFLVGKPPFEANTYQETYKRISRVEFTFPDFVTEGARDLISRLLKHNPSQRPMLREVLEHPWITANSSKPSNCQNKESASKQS

T1 sequence (Q02750 whole entry): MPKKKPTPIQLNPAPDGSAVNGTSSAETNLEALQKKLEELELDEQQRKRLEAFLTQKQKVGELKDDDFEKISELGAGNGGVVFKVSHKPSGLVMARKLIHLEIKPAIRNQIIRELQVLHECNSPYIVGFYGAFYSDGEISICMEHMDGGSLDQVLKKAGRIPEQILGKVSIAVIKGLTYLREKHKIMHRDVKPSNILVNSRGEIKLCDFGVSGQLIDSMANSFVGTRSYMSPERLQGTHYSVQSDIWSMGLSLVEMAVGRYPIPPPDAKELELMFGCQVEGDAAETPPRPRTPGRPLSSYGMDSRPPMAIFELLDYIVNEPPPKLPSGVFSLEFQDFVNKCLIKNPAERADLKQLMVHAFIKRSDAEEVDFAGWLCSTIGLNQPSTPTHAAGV
Chain of Serine/threonine-protein kinase Chk2 (O96017 whole entry): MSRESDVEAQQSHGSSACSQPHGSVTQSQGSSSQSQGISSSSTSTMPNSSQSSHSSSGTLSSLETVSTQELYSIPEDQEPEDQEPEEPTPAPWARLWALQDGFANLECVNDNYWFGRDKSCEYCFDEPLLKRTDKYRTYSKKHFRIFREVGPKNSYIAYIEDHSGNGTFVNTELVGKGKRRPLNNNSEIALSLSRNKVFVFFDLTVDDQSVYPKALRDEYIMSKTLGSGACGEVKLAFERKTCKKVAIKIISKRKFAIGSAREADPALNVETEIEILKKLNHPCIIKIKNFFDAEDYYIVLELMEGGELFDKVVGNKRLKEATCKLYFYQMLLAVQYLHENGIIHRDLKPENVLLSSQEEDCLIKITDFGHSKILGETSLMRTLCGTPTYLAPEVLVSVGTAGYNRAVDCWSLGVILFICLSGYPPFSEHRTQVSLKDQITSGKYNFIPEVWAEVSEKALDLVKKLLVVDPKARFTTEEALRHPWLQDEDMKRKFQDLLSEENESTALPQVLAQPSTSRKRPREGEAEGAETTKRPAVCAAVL
Chain of Ribosomal protein S6 kinase (P70S6K) (Q9UBS0 whole entry): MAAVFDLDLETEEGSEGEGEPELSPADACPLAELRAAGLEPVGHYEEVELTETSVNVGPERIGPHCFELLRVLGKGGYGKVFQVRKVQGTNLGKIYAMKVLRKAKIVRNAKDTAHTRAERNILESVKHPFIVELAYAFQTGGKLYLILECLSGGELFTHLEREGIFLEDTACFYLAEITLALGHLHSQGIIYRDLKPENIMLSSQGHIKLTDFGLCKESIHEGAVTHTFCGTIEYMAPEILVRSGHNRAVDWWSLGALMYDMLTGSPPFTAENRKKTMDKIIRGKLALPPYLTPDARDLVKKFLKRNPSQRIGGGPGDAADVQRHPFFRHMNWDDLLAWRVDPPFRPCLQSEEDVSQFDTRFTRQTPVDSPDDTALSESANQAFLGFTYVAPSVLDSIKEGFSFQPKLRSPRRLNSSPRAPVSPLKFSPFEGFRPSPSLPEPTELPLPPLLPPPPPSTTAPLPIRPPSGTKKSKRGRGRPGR
Chain of Ribosomal protein S6 kinase (P70S6K) (P23443 whole entry): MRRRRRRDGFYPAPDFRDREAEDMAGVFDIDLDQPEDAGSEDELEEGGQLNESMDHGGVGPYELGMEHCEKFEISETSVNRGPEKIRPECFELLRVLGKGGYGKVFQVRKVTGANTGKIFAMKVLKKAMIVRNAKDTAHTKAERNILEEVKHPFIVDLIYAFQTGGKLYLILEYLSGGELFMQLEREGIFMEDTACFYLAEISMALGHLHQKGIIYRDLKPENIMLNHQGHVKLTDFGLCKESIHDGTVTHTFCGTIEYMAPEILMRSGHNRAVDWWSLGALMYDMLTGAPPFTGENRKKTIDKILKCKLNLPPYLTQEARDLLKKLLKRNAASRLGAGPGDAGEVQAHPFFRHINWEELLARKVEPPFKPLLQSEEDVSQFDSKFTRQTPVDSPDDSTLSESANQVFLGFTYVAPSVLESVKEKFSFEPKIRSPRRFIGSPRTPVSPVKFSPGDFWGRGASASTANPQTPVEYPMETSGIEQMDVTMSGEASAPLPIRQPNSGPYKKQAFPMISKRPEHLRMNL

| AUC [1] [ng·h/mL] | further results | SMILES |
| --- | --- | --- |
| 5260 | – | CC(CO)/N=C(\N)c1c(O)nsc1Nc1ccc(Oc2cccc(Cl)c2Cl)cc1 (stereo not given) |
| 900 | – | CC(CO)NC(=N)c1c(O)nsc1Nc1ccc(Oc2cc(F)ccc2Cl)cc1 (stereo not given) |
| 617 | – | N=C(NCCN1CCOCC1)c1c(O)nsc1Nc1ccc(Oc2cc(Cl)ccc2Cl)cc1 |
| 9430 | – | CC(CO)NC(=N)c1c(O)nsc1Nc1ccc(Oc2cccc(F)c2F)cc1 (stereo not given) |
| 4280 | – | CC(CO)NC(=N)c1c(O)nsc1Nc1ccc(Oc2cccc(Cl)c2Cl)c(Cl)c1 (stereo not given) |
| 6860 | – | NC(=NCCCN1CCOCC1)c1c(Nc2ccc(Oc3cc(Cl)ccc3Cl)cc2)s[nH]c1=O |
| 11700 | – | CC(CO)NC(=N)c1c(O)nsc1Nc1ccc(Oc2cc(Cl)cc(Cl)c2)cc1 (stereo not given) |
| 16500 | – | CC(CO)/N=C(\N)c1c(O)nsc1Nc1ccc(Oc2ccc(F)cc2F)cc1 (stereo not given) |
| 26200 | – | CC(CO)NC(=N)c1c(O)nsc1Nc1ccc(Oc2ccc(Cl)cc2Cl)cc1 (stereo not given) |
| 2880 | – | N/C(=N\N1CCOCC1)c1c(O)nsc1Nc1ccc(Oc2cc(Cl)ccc2Cl)cc1 |
| 262 | – | CN1CCN(CC/N=C(\N)c2c(O)nsc2Nc2ccc(Oc3cc(Cl)ccc3Cl)cc2)CC1 |
| 5140 | – | CC(CO)/N=C(\N)c1c(O)nsc1Nc1ccc(Oc2cc(F)cc(F)c2)cc1 (stereo not given) |
| 6260 | – | CC(CO)/N=C(\N)c1c(O)nsc1Nc1ccc(Oc2ccc(F)cc2Cl)cc1 (stereo not given) |
| 20300 | – | CC(CO)/N=C(\N)c1c(O)nsc1Nc1ccc(Oc2cc(F)cc(F)c2Cl)cc1 (stereo not given) |
| 47400 | – | CC(CO)N=C(N)c1c(Nc2ccc(Oc3cc(Cl)ccc3Cl)cc2)s[nH]c1=O (stereo not given) |
| 22400 | – | CC(C)C(CO)N=C(N)c1c(Nc2ccc(Oc3cc(Cl)ccc3Cl)cc2)s[nH]c1=O (stereo not given) |
| 5100 | – | NC(=NC(CO)CO)c1c(Nc2ccc(Oc3cc(Cl)ccc3Cl)cc2)s[nH]c1=O |
| 425 | – | N=C(NCC1CCCO1)c1c(O)nsc1Nc1ccc(Oc2cc(Cl)ccc2Cl)cc1 (stereo not given) |
| 87 | – | N/C(=N\CCN1CCNC(=O)C1)c1c(O)nsc1Nc1ccc(Oc2cc(Cl)ccc2Cl)cc1 |
| 14600 | – | NC(=NCCO)c1c(Nc2ccc(Oc3cc(Cl)ccc3Cl)cc2)s[nH]c1=O |
| 4250 | AUC [2]: 8540 ng·h/mL | CC(CO)N=C(N)c1c(Nc2ccc(S(=O)(=O)c3ccccc3)cc2)s[nH]c1=O (stereo not given) |
| 5710 | – | CC(CO)NC(=N)c1c(O)nsc1Nc1ccc(Oc2cccc(C(F)(F)F)c2Cl)c(Cl)c1 (stereo not given) |
| 60 | AUC [2]: 2900 ng·h/mL | CC(CO)/N=C(\N)c1c(O)nsc1Nc1ccc(C(=O)c2ccccc2)cc1 (stereo not given) |
| 220 | AUC [2]: 7250 ng·h/mL | CC(CO)/N=C(\N)c1c(O)nsc1Nc1ccc(Cc2ccccc2)cc1 (stereo not given) |

| AUC [1] [ng·h/mL] | further results | SMILES |
| --- | --- | --- |
| 21900 | – | CC(CO)N=C(N)c1c(Nc2ccc(Oc3cc(C(F)(F)F)ccc3Cl)cc2)s[nH]c1=O (stereo not given) |
| 4500 | – | CC(CO)N=C(N)c1c(Nc2ccc(Oc3cccc(C(F)(F)F)c3Cl)c(F)c2)s[nH]c1=O (stereo not given) |
| 31300 | – | CC(CO)N=C(N)c1c(Nc2ccc(Oc3cc(C(F)(F)F)ccc3F)cc2)s[nH]c1=O (stereo not given) |
| 13000 | – | CC(CO)N=C(N)c1c(Nc2ccc(Oc3cccc(C(F)(F)F)c3F)cc2)s[nH]c1=O (stereo not given) |
| 20400 | – | CC(CO)NC(=N)c1c(O)nsc1Nc1ccc(Oc2cccc(C(F)(F)F)c2Cl)cc1 (stereo not given) |
| 1240 | pEC50 [3]: 7.35; pIC50 [4]: 6.58; pIC50 [5]: 6.35; pIC50 [6]: 6.41; pIC50 [7]: 7.89; pIC50 [8]: 6.62; pIC50 [9]: 6.00; AUC [2]: 859 ng·h/mL; pIC50 (Aurora kinase A): 6.58 | CC(CO)NC(=N)c1c(O)nsc1Nc1ccc(Nc2ccccc2)cc1 (stereo not given) |
| 2020 | – | N=C(NCCC(O)CO)c1c(O)nsc1Nc1ccc(Oc2cc(Cl)ccc2Cl)cc1 (stereo not given) |
| 28700 | – | CC(CO)NC(=N)c1c(O)nsc1Nc1ccc(Oc2cccc(C(F)(F)F)c2)cc1 (stereo not given) |
| 1980 | – | CN1CCN(N=C(N)c2c(Nc3ccc(Oc4cc(Cl)ccc4Cl)cc3)s[nH]c2=O)CC1 |
| 12500 | – | NC(=NCC(O)CO)c1c(Nc2ccc(Oc3cc(Cl)ccc3Cl)cc2)s[nH]c1=O (stereo not given) |
| 5690 | – | CC(CO)N=C(N)c1c(Nc2ccc(Oc3ccc(F)cc3Cl)c(Cl)c2)s[nH]c1=O (stereo not given) |
| 14600 | – | CCC(CO)/N=C(\N)c1c(O)nsc1Nc1ccc(Oc2cc(Cl)ccc2Cl)cc1 (stereo not given) |
| 12600 | – | CC(CO)/N=C(\N)c1c(O)nsc1Nc1ccc(Oc2cccc(Cl)c2F)cc1 (stereo not given) |
| 22200 | – | CC(CO)/N=C(\N)c1c(O)nsc1Nc1ccc(Oc2cc(Cl)ccc2Cl)c(F)c1 (stereo not given) |
| 2350 | AUC [2]: 9250 ng·h/mL | CC(CO)/N=C(\N)c1c(O)nsc1Nc1ccc(C(C)(C)c2ccccc2)cc1 (stereo not given) |
| 23900 | – | CC(O)C/N=C(\N)c1c(O)nsc1Nc1ccc(Oc2cc(Cl)ccc2Cl)cc1 (stereo not given) |
| 265 | AUC [2]: 6900 ng·h/mL | CC(CO)N=C(N)c1c(Nc2ccc(Sc3ccccc3)cc2)s[nH]c1=O (stereo not given) |
| 2420 | – | CN1CCN(CCC/N=C(\N)c2c(O)nsc2Nc2ccc(Oc3cc(Cl)ccc3Cl)cc2)CC1 |
| 14900 | – | CC(CO)/N=C(\N)c1c(O)nsc1Nc1ccc(Oc2cc(F)cc(F)c2Cl)c(F)c1 (stereo not given) |
| 900 | – | CC(CO)N=C(N)c1c(Nc2ccc(Oc3cccc(N(C)C)c3)cc2)s[nH]c1=O (stereo not given) |
| 12700 | – | Cc1cc(Oc2ccc(F)cc2Cl)ccc1Nc1snc(O)c1/C(N)=N/C(C)CO (stereo not given) |
| 15400 | – | CC(CO)NC(=N)c1c(O)nsc1Nc1ccc(Oc2cc(F)cc(C(F)(F)F)c2)cc1 (stereo not given) |
| 1140 | pEC50 [3]: 7.38; pIC50 [4]: 7.59; pIC50 [5]: 6.10; pIC50 [6]: 6.34; pIC50 [7]: 6.85; pIC50 [8]: 7.48; pIC50 [9]: 5.58; AUC [2]: 8320 ng·h/mL; pIC50 (Aurora kinase A): 6.59 | CC(CO)/N=C(\N)c1c(O)nsc1Nc1ccc(Oc2ccccc2)cc1 (stereo not given) |
